From patent US20260022142A1, “MACROCYCLIC IMMUNOMODULATORS” (Bristol-Myers Squibb Company, priority 2022, published 2026) come the findings set out here.

SMILES strings stand for the structures. Bridge positions count the residues as written; N and C are the ends. Square brackets hold non-standard residues; d marks the D form. Peptide text beside a SMILES is read from it. * marks the point of attachment. ξ: configuration not given here. Bip = N[C@@H](Cc1ccc(-c2ccccc2)cc1)C(=O)O; Phe(3-Me) = Cc1cccc(C[C@H](N)C(=O)O)c1; Val(3-OH) = CC(C)(O)[C@H](N)C(=O)O; Cha = N[C@@H](CC1CCCCC1)C(=O)O; Thr(3ξ) = CC(O)[C@H](N)C(=O)O; 12Ado = NCCCCCCCCCCCC(=O)O; Carboxymethyl = O=C(O)C*; Orn = NCCC[C@H](N)C(=O)O; Aun = NCCCCCCCCCCC(=O)O; Dab = NCC[C@H](N)C(=O)O

T1 sequence (Q15116 25-288): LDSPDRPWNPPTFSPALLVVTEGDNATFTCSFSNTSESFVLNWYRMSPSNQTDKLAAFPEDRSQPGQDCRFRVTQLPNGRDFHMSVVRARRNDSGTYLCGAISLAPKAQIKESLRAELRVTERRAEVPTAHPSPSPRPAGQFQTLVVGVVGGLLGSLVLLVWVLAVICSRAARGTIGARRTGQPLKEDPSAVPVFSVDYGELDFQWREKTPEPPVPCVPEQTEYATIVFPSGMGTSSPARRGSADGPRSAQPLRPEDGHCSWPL

The assay addresses T1, PD-1/PD-L1 interaction (PE-labeled human PD-L1-Ig binding to Jurkat cell line over-expressing human PD-1) (Homo sapiens, UniProt Q15116).
T1 construct: expressed in transfected cells; host or cells: Jurkat
Kind of assay: Jurkat-PD-1 Cell Binding High-Content Screening Assay (CBA). Type of assay: cell-based. The settings on record: Jurkat cell line over-expressing human PD-1; PE-labeled PD-L1-Ig 20 nM final; read-out: Jurkat hPD1-PDL1 IC50. Put shortly: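 Binding of fluorescent PD-L1-Ig (20 nM final) to Jurkat-PD-1 cells was measured by automated imaging after 1 h, following a 2 h compound pre-treatment at 37° C.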
On to `Cc1cccc(C[C@@H]2NC(=O)[C@H](CC(=O)O)NC(=O)[C@H](Cc3ccc(OCC(=O)O)cc3)NC(=O)[C@H](CCN)NC(=O)CSC[C@@H](C(=O)N[C@@H](CCN)C(=O)N[C@@H](CO)C(=O)NCCCCCCCCCCCC(=O)O)NC(=O)[C@H](CCCN)NC(=O)[C@H](C(C)O)NC(=O)[C@H](CC3CCCCC3)NC(=O)[C@H](CCN)NC(=O)[C@@H](CC(C)C)NC(=O)[C@H](CCCN)NC(=O)[C@H](Cc3ccc(OCC(=O)O)cc3)NC(=O)[C@H](Cc3ccc(-c4ccccc4)cc3)NC(=O)[C@H](Cc3ccc(OCC(=O)O)cc3)NC2=O)c1` (stereo partly drawn) [Compound 3636] ({CH2CO}-[Dab]Y(Carboxymethyl)D[Phe(3-Me)]Y(Carboxymethyl)[Bip]Y(Carboxymethyl)[Orn][dL][Dab][Cha][Thr(3ξ)][Orn]C[Dab]S[12Ado]-OH; thioether N-14), for which the IC50 is 20.9 nM.

On to `CC(=O)NCCCC[C@@H]1NC(=O)[C@H](Cc2ccc(-c3ccccc3)cc2)NC(=O)[C@H](Cc2ccc(O)cc2)NC(=O)[C@H](Cc2cccc(C)c2)NC(=O)[C@H](CC(=O)O)NC(=O)[C@H](Cc2ccc(OCC(=O)O)cc2)NC(=O)[C@H](CCN)NC(=O)CSC[C@@H](C(=O)N[C@@H](CCN)C(=O)N[C@@H](CO)C(=O)NCCCCCCCCCCCC(=O)O)NC(=O)[C@H](CCCCN)NC(=O)[C@H](C(C)O)NC(=O)[C@H](CC2CCCCC2)NC(=O)[C@H](CCN)NC(=O)[C@@H](CC(C)C)NC(=O)[C@H](CCCN)NC1=O` (stereo partly drawn) [Compound 3637] ({CH2CO}-[Dab]Y(Carboxymethyl)D[Phe(3-Me)]Y[Bip]K(Ac)[Orn][dL][Dab][Cha][Thr(3ξ)]KC[Dab]S[12Ado]-OH; thioether N-14), for which the IC50 came out at 29.1 nM. As to `CC(=O)NCCCC[C@@H]1NC(=O)[C@H](Cc2ccc(-c3ccccc3)cc2)NC(=O)[C@H](Cc2ccc(O)cc2)NC(=O)[C@H](Cc2cccc(C)c2)NC(=O)[C@H](CC(=O)O)NC(=O)[C@H](Cc2ccc(OCC(=O)O)cc2)NC(=O)[C@H](CCN)NC(=O)CSC[C@@H](C(=O)N[C@@H](CCCN)C(=O)N[C@@H](CO)C(=O)NCCCCCCCCCCC(=O)O)NC(=O)[C@H](CCC(=O)O)NC(=O)[C@H](C(C)O)NC(=O)[C@H](CC2CCCCC2)NC(=O)[C@H](CCN)NC(=O)[C@@H](CC(C)C)NC(=O)[C@H](CCCN)NC1=O` (stereo partly drawn) [Compound 3638] ({CH2CO}-[Dab]Y(Carboxymethyl)D[Phe(3-Me)]Y[Bip]K(Ac)[Orn][dL][Dab][Cha][Thr(3ξ)]EC[Orn]S[Aun]-OH; thioether N-14), the IC50 came to 70.9 nM.

For `Cc1cccc(C[C@@H]2NC(=O)[C@H](CC(=O)O)NC(=O)[C@H](Cc3ccc(OCC(=O)O)cc3)NC(=O)[C@H](CC(N)=O)NC(=O)CSC[C@@H](C(=O)N[C@@H](CCN)C(=O)NCCCCCCCCCCC(=O)O)NC(=O)[C@H](CO)NC(=O)[C@H](C(C)O)NC(=O)[C@H](CC3CCCCC3)NC(=O)[C@H](CCN)NC(=O)[C@@H](CC(C)C)NC(=O)[C@H](CCCN)NC(=O)[C@H](Cc3ccc(OCC(=O)O)cc3)NC(=O)[C@H](Cc3ccc(-c4ccccc4)cc3)NC(=O)[C@H](Cc3ccc(OCC(=O)O)cc3)NC2=O)c1` (stereo partly drawn) [Compound 3639] ({CH2CO}-NY(Carboxymethyl)D[Phe(3-Me)]Y(Carboxymethyl)[Bip]Y(Carboxymethyl)[Orn][dL][Dab][Cha][Thr(3ξ)]SC[Dab][Aun]-OH; thioether N-14), the IC50 was 10.5 nM.

In the case of `Cc1cccc(C[C@@H]2NC(=O)[C@H](CC(=O)O)NC(=O)[C@H](Cc3ccc(O)cc3)NC(=O)[C@@H](CCCNC(=N)N)NC(=O)CSC[C@@H](C(=O)N[C@@H](CCN)C(=O)NCCCCCCCCCCC(=O)O)NC(=O)[C@H](CO)NC(=O)[C@H](C(C)(C)O)NC(=O)[C@H](CC3CCCCC3)NC(=O)[C@H](CCN)NC(=O)[C@@H](CC(C)C)NC(=O)[C@H](CCCN)NC(=O)[C@H](Cc3ccc(OCC(=O)O)cc3)NC(=O)[C@H](Cc3ccc(-c4ccccc4)cc3)NC(=O)[C@H](Cc3ccc(OCC(=O)O)cc3)NC2=O)c1` [Compound 3640] ({CH2CO}-[dR]YD[Phe(3-Me)]Y(Carboxymethyl)[Bip]Y(Carboxymethyl)[Orn][dL][Dab][Cha][Val(3-OH)]SC[Dab][Aun]-OH; thioether N-14), the IC50 stood at 11 nM. Turning to `Cc1cccc(C[C@@H]2NC(=O)[C@H](CC(=O)O)NC(=O)[C@H](Cc3ccc(OCC(=O)O)cc3)NC(=O)[C@H](CCN)NC(=O)CSC[C@@H](C(=O)N[C@@H](CCN)C(=O)NCCCCCCCCCCC(=O)O)NC(=O)[C@H](CO)NC(=O)[C@H](C(C)(C)O)NC(=O)[C@H](CC3CCCCC3)NC(=O)[C@H](Cc3cnc[nH]3)NC(=O)[C@@H](CC(C)C)NC(=O)[C@H](CCCN)NC(=O)[C@H](Cc3ccc(OCC(=O)O)cc3)NC(=O)[C@H](Cc3ccc(-c4ccccc4)cc3)NC(=O)[C@H](Cc3ccc(OCC(=O)O)cc3)NC2=O)c1` [Compound 3641] ({CH2CO}-[Dab]Y(Carboxymethyl)D[Phe(3-Me)]Y(Carboxymethyl)[Bip]Y(Carboxymethyl)[Orn][dL]H[Cha][Val(3-OH)]SC[Dab][Aun]-OH; thioether N-14), the IC50 is 7.4 nM. To `Cc1cccc(C[C@@H]2NC(=O)[C@H](CC(=O)O)NC(=O)[C@H](Cc3ccc(OCC(=O)O)cc3)NC(=O)[C@H](CCN)NC(=O)CSC[C@@H](C(=O)N[C@@H](CC(N)=O)C(=O)NCCCCCCCCCCC(=O)O)NC(=O)[C@H](Cc3cnc[nH]3)NC(=O)[C@H](C(C)O)NC(=O)[C@H](CC3CCCCC3)NC(=O)[C@H](CCN)NC(=O)[C@@H](CC(C)C)NC(=O)[C@H](CCCN)NC(=O)[C@H](Cc3ccc(OCC(=O)O)cc3)NC(=O)[C@H](Cc3ccc(-c4ccccc4)cc3)NC(=O)[C@H](Cc3ccc(OCC(=O)O)cc3)NC2=O)c1` (stereo partly drawn) [Compound 3642] ({CH2CO}-[Dab]Y(Carboxymethyl)D[Phe(3-Me)]Y(Carboxymethyl)[Bip]Y(Carboxymethyl)[Orn][dL][Dab][Cha][Thr(3ξ)]HCN[Aun]-OH; thioether N-14) belongs 6.8 nM. Next, `CC(=O)NCCCC[C@@H]1NC(=O)[C@H](Cc2ccc(-c3ccccc3)cc2)NC(=O)[C@H](Cc2ccc(OCC(=O)O)cc2)NC(=O)[C@H](Cc2cccc(C)c2)NC(=O)[C@H](CC(=O)O)NC(=O)[C@H](Cc2ccc(OCC(=O)O)cc2)NC(=O)[C@H](CCN)NC(=O)CSC[C@@H](C(=O)N[C@@H](CCN)C(=O)N[C@@H](CO)C(=O)NCCCCCCCCCCC(=O)O)NC(=O)[C@H](CO)NC(=O)[C@H](C(C)(C)O)NC(=O)[C@H](CC2CCCCC2)NC(=O)[C@H](CCN)NC(=O)[C@@H](CC(C)C)NC(=O)[C@H](CCCN)NC1=O` [Compound 3644] ({CH2CO}-[Dab]Y(Carboxymethyl)D[Phe(3-Me)]Y(Carboxymethyl)[Bip]K(Ac)[Orn][dL][Dab][Cha][Val(3-OH)]SC[Dab]S[Aun]-OH; thioether N-14): 18.8 nM; `CC(=O)NCCCC[C@@H]1NC(=O)[C@H](Cc2ccc(-c3ccccc3)cc2)NC(=O)[C@H](CCNC(C)=O)NC(=O)[C@H](Cc2cccc(C)c2)NC(=O)[C@H](CC(=O)O)NC(=O)[C@H](Cc2ccc(OCC(=O)O)cc2)NC(=O)[C@H](Cc2ccc(OCC(=O)O)cc2)NC(=O)CSC[C@@H](C(=O)N[C@@H](CCN)C(=O)N[C@@H](CO)C(=O)NCCCCCCCCCCCC(=O)O)NC(=O)[C@H](Cc2cnc[nH]2)NC(=O)[C@H](C(C)O)NC(=O)[C@H](CC2CCCCC2)NC(=O)[C@H](CCN)NC(=O)[C@@H](CC(C)C)NC(=O)[C@H](CCCN)NC1=O` (stereo partly drawn) [Compound 3646] ({CH2CO}-Y(Carboxymethyl)Y(Carboxymethyl)D[Phe(3-Me)][Dab](Ac)[Bip]K(Ac)[Orn][dL][Dab][Cha][Thr(3ξ)]HC[Dab]S[12Ado]-OH; thioether N-14): 94.7 nM.
